This is an account of results in ChEMBL document CHEMBL1145313, “Identification of potent and highly selective chiral tri-amine and tetra-amine mu opioid receptors ligands: an example of lead optimization using mixture-based libraries” (Bioorg Med Chem Lett, 2006).

The structures appear in SMILES notation.

By IC50 is commonly meant the midpoint of a concentration-inhibition curve.

The target in the first assay is Delta-type opioid receptor (Homo sapiens, UniProt P41143). The assay can be described thus: Displacement of [3H]DPDE from delta opioid receptor.
Delta-type opioid receptor, sequence (P41143 whole entry): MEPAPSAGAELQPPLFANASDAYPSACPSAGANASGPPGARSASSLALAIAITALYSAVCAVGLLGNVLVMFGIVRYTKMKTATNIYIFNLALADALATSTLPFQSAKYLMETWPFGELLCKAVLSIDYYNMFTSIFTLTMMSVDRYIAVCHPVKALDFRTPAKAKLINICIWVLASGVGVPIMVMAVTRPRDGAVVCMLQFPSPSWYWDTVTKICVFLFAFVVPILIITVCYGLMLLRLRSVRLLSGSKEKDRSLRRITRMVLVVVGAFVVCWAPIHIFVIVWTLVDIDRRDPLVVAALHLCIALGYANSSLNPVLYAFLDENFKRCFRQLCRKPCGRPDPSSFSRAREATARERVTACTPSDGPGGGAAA
The compound `CN[C@H](CN[C@H](CN)Cc1ccc(O)cc1)Cc1ccc(O)cc1` came in with an IC50 of 10.9 µM.

The compound `CN[C@@H](Cc1ccc(O)cc1)CN(C)[C@H](CNCc1ccccc1)Cc1ccc(O)cc1` registered a half-maximal inhibitory concentration (IC50) of 3.97 µM.

The target of a further assay is Kappa-type opioid receptor (Homo sapiens, UniProt P41145). The assay can be described thus: Displacement of [3H]U-69593 from kappa opioid receptor.
Kappa-type opioid receptor, sequence (P41145 whole entry): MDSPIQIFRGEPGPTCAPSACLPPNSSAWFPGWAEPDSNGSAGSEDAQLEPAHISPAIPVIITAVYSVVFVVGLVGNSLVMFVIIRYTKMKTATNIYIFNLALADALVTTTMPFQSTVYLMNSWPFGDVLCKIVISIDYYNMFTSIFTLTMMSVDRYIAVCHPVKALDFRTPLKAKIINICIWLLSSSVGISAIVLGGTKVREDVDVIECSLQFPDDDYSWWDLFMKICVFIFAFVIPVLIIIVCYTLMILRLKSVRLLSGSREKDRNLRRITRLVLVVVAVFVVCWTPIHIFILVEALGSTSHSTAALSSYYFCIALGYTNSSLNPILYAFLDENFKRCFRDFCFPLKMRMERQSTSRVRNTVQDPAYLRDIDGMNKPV
In the case of `CN[C@H](CN[C@H](CN)Cc1ccc(O)cc1)Cc1ccc(O)cc1`, the IC50 came out at 9.67 µM.

As to `NC[C@H](Cc1ccc(O)cc1)NC[C@@H](N)Cc1ccc(O)cc1`, the half-maximal inhibitory concentration (IC50) worked out at 32.2 µM.

`CN[C@@H](Cc1ccc(O)cc1)CN(C)[C@H](CNCc1ccccc1)Cc1ccc(O)cc1` had an IC50 of 3.85 µM. Against the preceding compound, the IC50 is about 8.4-fold lower.

For a further assay, the target named is Mu-type opioid receptor (Rattus norvegicus, UniProt P33535). Nature of the assay: Displacement of [3H]DAMGO from mu opioid receptor in rat brain homogenate. The assay is classed as tissue-based. On the technique in general: Displacement assays read how much labelled ligand stays bound in the presence of the test substance.
Mu-type opioid receptor, sequence (P33535 whole entry): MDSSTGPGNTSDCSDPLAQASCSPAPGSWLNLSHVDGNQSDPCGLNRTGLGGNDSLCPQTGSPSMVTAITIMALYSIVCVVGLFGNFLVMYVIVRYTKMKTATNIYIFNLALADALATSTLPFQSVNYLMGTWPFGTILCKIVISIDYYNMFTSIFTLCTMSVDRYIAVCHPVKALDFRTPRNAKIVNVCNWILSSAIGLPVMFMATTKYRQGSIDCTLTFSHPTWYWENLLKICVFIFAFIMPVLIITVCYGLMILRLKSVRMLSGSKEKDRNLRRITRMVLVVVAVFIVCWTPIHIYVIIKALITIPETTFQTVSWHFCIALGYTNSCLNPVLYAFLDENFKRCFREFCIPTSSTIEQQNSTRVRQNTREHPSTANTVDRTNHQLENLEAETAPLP
Regarding `CCN[C@H](CN[C@H](CN[C@H](CN[C@H](CN[C@@H](Cc1ccc(O)cc1)CN1CCC[C@H]1CN)Cc1ccccc1)Cc1ccccc1)Cc1ccc(O)cc1)Cc1ccc(O)cc1`, the IC50 came out at 48 nM. This lies in the double-digit nanomolar range. Regarding `CCN[C@H](CN[C@H](CN[C@H](CN[C@H](CN[C@H](CN[C@H](CN)CCSC)Cc1ccc(O)cc1)Cc1ccccc1)Cc1ccccc1)Cc1ccc(O)cc1)Cc1ccc(O)cc1`, the IC50 came out at 126 nM. This IC50 lies about 2.6-fold higher than the previous one. `CCN[C@H](CN[C@H](CN[C@H](CN[C@H](CN[C@H](CN[C@H](CN)Cc1ccccc1)Cc1ccc(O)cc1)Cc1ccccc1)Cc1ccccc1)Cc1ccc(O)cc1)Cc1ccc(O)cc1` displayed an IC50 of 176 nM.

The compound `CN[C@H](CN[C@H](CN)Cc1ccc(O)cc1)Cc1ccc(O)cc1` gave an IC50 of 111 nM.

Compound `CCN[C@H](CN[C@H](CN[C@H](CN[C@H](CN[C@H](CN)Cc1ccc(O)cc1)Cc1ccc(O)cc1)Cc1ccc(O)cc1)Cc1ccc(O)cc1)Cc1ccc(O)cc1` displayed an IC50 of 146 nM.

Take `CCN[C@H](CN[C@H](CN[C@H](CN[C@H](CN[C@H](CN[C@@H](CN)CO)Cc1ccc(O)cc1)Cc1ccccc1)Cc1ccccc1)Cc1ccc(O)cc1)Cc1ccc(O)cc1`: the IC50 came out at 66 nM. Against the preceding compound, the IC50 is about 2.2-fold lower.

The compound `CCN[C@H](CN[C@H](CN[C@@H](Cc1ccc(O)cc1)CN1CCC[C@H]1CN[C@@H](CN[C@@H](CN)CO)[C@@H](C)O)Cc1ccc(O)cc1)Cc1ccc(O)cc1` displayed an IC50 of 32 nM.

Turning to `CCN[C@H](CN[C@H](CN[C@@H](Cc1ccc(O)cc1)CN1CCC[C@H]1CN[C@H](CN[C@H](CN)CO)Cc1ccc(O)cc1)Cc1ccc(O)cc1)Cc1ccc(O)cc1`, the IC50 came to 89 nM.

`CCN[C@H](CN[C@H](CN[C@H](CN[C@H](CN[C@@H](CN[C@H](CN)CCSC)[C@@H](C)O)Cc1ccccc1)Cc1ccc(O)cc1)Cc1ccc(O)cc1)Cc1ccc(O)cc1` showed an IC50 of 181 nM. On the same count and under the same terms, for `CCN[C@H](CN[C@H](CN[C@H](CN[C@H](CN[C@H](CN[C@H](CN)Cc1ccc(O)cc1)Cc1ccc(O)cc1)Cc1ccccc1)Cc1ccccc1)Cc1ccc(O)cc1)Cc1ccc(O)cc1` the value was 95 nM; for `CCN[C@H](CN[C@H](CN[C@@H](Cc1ccccc1)CN1CCC[C@H]1CN[C@H](CN[C@H](CN)Cc1ccc(O)cc1)Cc1ccc(O)cc1)Cc1ccc(O)cc1)Cc1ccc(O)cc1`, 27 nM; for `CCN[C@H](CN[C@H](CN[C@@H](Cc1ccccc1)CN1CCC[C@H]1CN[C@H](CN[C@H](CN)CO)Cc1ccc(O)cc1)Cc1ccc(O)cc1)Cc1ccc(O)cc1` (stereo in doubt; 5), 19 nM. Still for that read-out and setting: then `NC[C@H](Cc1ccc(O)cc1)NC[C@@H](N)Cc1ccc(O)cc1`, with 6040 nM. The same measure, in the same setting: then `CCN[C@H](CN[C@H](CN[C@@H](Cc1ccccc1)CN1CCC[C@H]1CN[C@H](CN[C@H](CN)CO)Cc1ccc(O)cc1)Cc1ccc(O)cc1)Cc1ccc(O)cc1` (stereo in doubt), with 67 nM; and `CCN[C@H](CN[C@H](CN[C@@H](Cc1ccc(O)cc1)CN1CCC[C@H]1CN[C@@H](CN[C@H](CN)Cc1ccccc1)[C@@H](C)O)Cc1ccc(O)cc1)Cc1ccc(O)cc1`, with 128 nM. With `CCN[C@H](CN[C@H](CN[C@@H](Cc1ccccc1)CN1CCC[C@H]1CN[C@H](CN)Cc1ccc(O)cc1)Cc1ccc(O)cc1)Cc1ccc(O)cc1`, the IC50 worked out at 24 nM. On the same count and under the same terms, then `CCN[C@H](CN[C@H](CN[C@@H](Cc1ccc(O)cc1)CN1CCC[C@H]1CN[C@H](CN[C@H](CN)CCSC)Cc1ccc(O)cc1)Cc1ccc(O)cc1)Cc1ccc(O)cc1`, with 113 nM; and `CCN[C@H](CN[C@H](CN[C@@H](Cc1ccccc1)CN1CCC[C@H]1CN[C@H](CN[C@H](CN)Cc1ccccc1)Cc1ccc(O)cc1)Cc1ccc(O)cc1)Cc1ccc(O)cc1`, with 27 nM.

For `CCN[C@H](CN[C@H](CN[C@@H](Cc1ccc(O)cc1)CN1CCC[C@H]1CN[C@H](CN[C@H](CN)Cc1ccc(O)cc1)Cc1ccc(O)cc1)Cc1ccc(O)cc1)Cc1ccc(O)cc1`, the IC50 stood at 87 nM.

The compound `CCN[C@H](CN[C@H](CN[C@H](CN[C@H](CN[C@H](CN[C@H](CN)Cc1ccc(O)cc1)Cc1ccc(O)cc1)Cc1ccccc1)Cc1ccc(O)cc1)Cc1ccc(O)cc1)Cc1ccc(O)cc1` displayed an IC50 of 261 nM. `CCN[C@H](CN[C@H](CN[C@@H](Cc1ccccc1)CN1CCC[C@H]1CN[C@@H](CN[C@@H](CN)CO)[C@@H](C)O)Cc1ccc(O)cc1)Cc1ccc(O)cc1` had a 50% inhibitory concentration (IC50) of 19 nM. On the same count and under the same terms, then `CCN[C@H](CN[C@H](CN[C@H](CN[C@H](CN[C@@H](CN1CCC[C@H]1CN)[C@@H](C)O)Cc1ccccc1)Cc1ccccc1)Cc1ccc(O)cc1)Cc1ccc(O)cc1`, with 82 nM. Same read-out and setting: for `CCN[C@H](CN[C@H](CN[C@@H](Cc1ccc(O)cc1)CN1CCC[C@H]1CN[C@H](CN[C@H](CN)Cc1ccccc1)Cc1ccc(O)cc1)Cc1ccc(O)cc1)Cc1ccc(O)cc1` the value was 83 nM.

`CCN[C@H](CN[C@H](CN[C@H](CN[C@H](CN[C@H](CN[C@H](CN)CCSC)Cc1ccc(O)cc1)Cc1ccccc1)Cc1ccc(O)cc1)Cc1ccc(O)cc1)Cc1ccc(O)cc1` returned a half-maximal inhibitory concentration (IC50) of 260 nM. Still for that read-out and setting: for `CCN[C@H](CN[C@H](CN[C@@H](Cc1ccc(O)cc1)CN1CCC[C@H]1CN[C@@H](CN[C@H](CN)Cc1ccc(O)cc1)[C@@H](C)O)Cc1ccc(O)cc1)Cc1ccc(O)cc1` the value was 61 nM; for `CCN[C@H](CN[C@H](CN[C@H](CN[C@H](CN[C@@H](CN[C@H](CN)Cc1ccc(O)cc1)[C@@H](C)O)Cc1ccccc1)Cc1ccccc1)Cc1ccc(O)cc1)Cc1ccc(O)cc1`, 78 nM; for `CCN[C@H](CN[C@H](CN[C@H](CN[C@H](CN[C@@H](CN1CCC[C@H]1CN)[C@@H](C)O)Cc1ccccc1)Cc1ccc(O)cc1)Cc1ccc(O)cc1)Cc1ccc(O)cc1`, 155 nM.

As to `CCN[C@H](CN[C@H](CN[C@H](CN)Cc1ccccc1)Cc1ccc(O)cc1)Cc1ccc(O)cc1`, the IC50 amounted to 47 nM. Still for that read-out and setting: then `CCN[C@H](CN[C@H](CN[C@@H](Cc1ccc(O)cc1)CN1CCC[C@H]1CN)Cc1ccc(O)cc1)Cc1ccc(O)cc1`, with 13 nM; and `CCN[C@H](CN[C@H](CN[C@@H](Cc1ccccc1)CN1CCC[C@H]1CN[C@@H](Cc1ccc(O)cc1)CN1CCC[C@H]1CN)Cc1ccc(O)cc1)Cc1ccc(O)cc1`, with 18 nM. `CCN[C@H](CN[C@H](CN[C@@H](Cc1ccc(O)cc1)CN1CCC[C@H]1CN[C@@H](CN1CCC[C@H]1CN)[C@@H](C)O)Cc1ccc(O)cc1)Cc1ccc(O)cc1` came in with a half-inhibitory concentration (IC50) of 41 nM. Still for that read-out and setting: then `CCN[C@H](CN[C@H](CN[C@H](CN[C@H](CN[C@@H](CN[C@H](CN)Cc1ccc(O)cc1)[C@@H](C)O)Cc1ccccc1)Cc1ccc(O)cc1)Cc1ccc(O)cc1)Cc1ccc(O)cc1`, with 200 nM. `CCN[C@H](CN[C@H](CN[C@@H](Cc1ccccc1)CN1CCC[C@H]1CN[C@@H](CN1CCC[C@H]1CN)[C@@H](C)O)Cc1ccc(O)cc1)Cc1ccc(O)cc1` yielded a 50% inhibitory concentration (IC50) of 15 nM.

Turning to `CCN[C@H](CN[C@H](CN[C@H](CN[C@H](CN[C@H](CN[C@H](CN)Cc1ccccc1)Cc1ccc(O)cc1)Cc1ccccc1)Cc1ccc(O)cc1)Cc1ccc(O)cc1)Cc1ccc(O)cc1`, the IC50 was found to be 258 nM. Still for that read-out and setting: then `CCN[C@H](CN[C@H](CN[C@@H](Cc1ccccc1)CN1CCC[C@H]1CN[C@@H](CN[C@H](CN)Cc1ccccc1)[C@@H](C)O)Cc1ccc(O)cc1)Cc1ccc(O)cc1`, with 19 nM; and `CCN[C@H](CN[C@H](CN[C@@H](Cc1ccccc1)CN1CCC[C@H]1CN[C@@H](CN[C@H](CN)CCSC)[C@@H](C)O)Cc1ccc(O)cc1)Cc1ccc(O)cc1`, with 14 nM; and `CCN[C@H](CN[C@H](CN[C@@H](Cc1ccc(O)cc1)CN1CCC[C@H]1CN[C@@H](Cc1ccc(O)cc1)CN1CCC[C@H]1CN)Cc1ccc(O)cc1)Cc1ccc(O)cc1`, with 79 nM. `CCN[C@H](CN[C@H](CN)Cc1ccc(O)cc1)Cc1ccc(O)cc1` yielded an IC50 of 344 nM. For the compound `CCN[C@H](CN[C@H](CN[C@H](CN[C@H](CN[C@@H](CN[C@@H](CN)CO)[C@@H](C)O)Cc1ccccc1)Cc1ccc(O)cc1)Cc1ccc(O)cc1)Cc1ccc(O)cc1`, the IC50 stood at 163 nM. `CCN[C@H](CN[C@H](CN[C@H](CN)Cc1ccc(O)cc1)Cc1ccc(O)cc1)Cc1ccc(O)cc1` showed an IC50 of 138 nM. This IC50 and that of the compound before are within 1.5-fold of each other. On the same count and under the same terms, for `CCN[C@H](CN[C@H](CN[C@@H](Cc1ccccc1)CN1CCC[C@H]1CN[C@@H](CN[C@H](CN)Cc1ccc(O)cc1)[C@@H](C)O)Cc1ccc(O)cc1)Cc1ccc(O)cc1` the value was 20 nM.

Turning to `CCN[C@H](CN[C@H](CN[C@H](CN[C@H](CN[C@@H](Cc1ccc(O)cc1)CN1CCC[C@H]1CN)Cc1ccccc1)Cc1ccc(O)cc1)Cc1ccc(O)cc1)Cc1ccc(O)cc1`, the IC50 came to 148 nM.

Take `CCN[C@H](CN[C@H](CN[C@H](CN[C@H](CN[C@@H](CN[C@H](CN)Cc1ccccc1)[C@@H](C)O)Cc1ccccc1)Cc1ccccc1)Cc1ccc(O)cc1)Cc1ccc(O)cc1`: the IC50 was 108 nM.

For `CCN[C@H](CN[C@H](CN[C@H](CN[C@H](CN)Cc1ccc(O)cc1)Cc1ccc(O)cc1)Cc1ccc(O)cc1)Cc1ccc(O)cc1`, the IC50 was 96 nM. In turn, `CCN[C@H](CN[C@H](CN[C@H](CN[C@H](CN[C@@H](CN[C@@H](CN)CO)[C@@H](C)O)Cc1ccccc1)Cc1ccccc1)Cc1ccc(O)cc1)Cc1ccc(O)cc1` had an IC50 of 90 nM.

`CCN[C@H](CN[C@H](CN[C@@H](Cc1ccccc1)CN1CCC[C@H]1CN[C@H](CN[C@H](CN)CCSC)Cc1ccc(O)cc1)Cc1ccc(O)cc1)Cc1ccc(O)cc1` gave an IC50 of 34 nM. The same measure, in the same setting: for `CCN[C@H](CN[C@H](CN[C@@H](Cc1ccc(O)cc1)CN1CCC[C@H]1CN[C@@H](CN[C@H](CN)CCSC)[C@@H](C)O)Cc1ccc(O)cc1)Cc1ccc(O)cc1` the value was 112 nM; for `CCN[C@H](CN[C@H](CN[C@H](CN[C@H](CN[C@@H](CN[C@H](CN)CCSC)[C@@H](C)O)Cc1ccccc1)Cc1ccccc1)Cc1ccc(O)cc1)Cc1ccc(O)cc1`, 115 nM; for `CCN[C@H](CN[C@H](CN[C@H](CN[C@H](CN[C@H](CN[C@@H](CN)CO)Cc1ccc(O)cc1)Cc1ccccc1)Cc1ccc(O)cc1)Cc1ccc(O)cc1)Cc1ccc(O)cc1`, 345 nM.
